Results as given in patent US20130150363A1, “Method of Treating Cancer Using a cMET and AXL Inhibitor and an ErbB Inhibitor” (GlaxoSmithKline, priority 2008, published 2013).

Tests used:
lung_H1975 tumor cells = assay: Cell growth inhibition (CellTiter-Glo), H1975; assay type: cell-based; settings: Homo sapiens, NCI-H1975, 72 h, 3 days
[1] = system: SNU-16 gastric carcinoma cells; assay: Cell growth inhibition (CellTiter-Glo), SNU-16; assay type: cell-based; settings: Homo sapiens, SNU-16, 72 h, 3 days
From the text: (§1) Esophageal carcinoma cell line OE33 was purchased from ECACC European Collection of Cell Cultures (UK). Breast cancer cell line JIMT-1 and gastric carcinoma cell line MKN-45 were purchased from Deutsche Sammlung von Mikroorganismen and Zellkulturen GmbH (Germany); KPL-4, a human breast cancer cell line was kindly provided by Prof. J Kurebayashi (Kawasaki Medical School, Kurashiki, Japan). […] The LICR-LON-HN5 head and neck carcinoma cell line (HN5) was a gift from the Institute of Cancer Research, Surrey, U.K. HN5C12 was developed by single-cell cloning of HN5 followed by exposure to increasing concentrations of lapatinib. […] Cell growth inhibition was determined via CellTiter-Glo cell viability assays. […] ATP levels were determined by adding Cell Titer Glo0 (Promega), incubating for 20 minutes then the luminescent signal was read on the SpectraMax M5 plate with a 0.5 second integration time. Cell growth was calculated relative to vehicle (DMSO) treated control wells. […] CI values were calculated with the interpolated IC50 values and the mutually non-exclusive equation derived by Chou and […](a)+Db/IC50(b)+(Da×Db)/(IC50(a)×IC50(b)) where IC50(a) is the IC50 of the inhibitor A; IC50(b) is the IC50 for the inhibitor B; […] […] EOHSA at each dose was calculated as the minimum difference in average % inhibition between the combination and each monotherapy, from the appropriate ANOVA contrast. […]

[2] = system: N87 gastric carcinoma cells; assay: Cell growth inhibition (CellTiter-Glo), N87; assay type: cell-based; settings: Homo sapiens, 72 h, 3 days
From the text: (§2) Esophageal carcinoma cell line OE33 was purchased from ECACC European Collection of Cell Cultures (UK). Breast cancer cell line JIMT-1 and gastric carcinoma cell line MKN-45 were purchased from Deutsche Sammlung von Mikroorganismen and Zellkulturen GmbH (Germany); KPL-4, a human breast cancer cell line was kindly provided by Prof. J Kurebayashi (Kawasaki Medical School, Kurashiki, Japan). […] The LICR-LON-HN5 head and neck carcinoma cell line (HN5) was a gift from the Institute of Cancer Research, Surrey, U.K. HN5C12 was developed by single-cell cloning of HN5 followed by exposure to increasing concentrations of lapatinib. […] Cell growth inhibition was determined via CellTiter-Glo cell viability assays. […] BT474-J4 and HN5C12 were washed with PBS and plated in their culture media without lapatinib. […] ATP levels were determined by adding Cell Titer Glo0 (Promega), incubating for 20 minutes then the luminescent signal was read on the SpectraMax M5 plate with a 0.5 second integration time. Cell growth was calculated relative to vehicle (DMSO) treated control wells. […] EOHSA at each dose was calculated as the minimum difference in average % inhibition between the combination and each monotherapy, from the appropriate ANOVA contrast. […] The p-values for both synergy and antagonism were calculated using this adjustment.

[3] = system: BT474 breast carcinoma cells; assay: Cell growth inhibition (CellTiter-Glo), BT474; assay type: cell-based; settings: Homo sapiens, BT-474, 72 h, 3 days
From the text: as §2

[4] = system: HCC1954 breast carcinoma cells; assay: Cell growth inhibition (CellTiter-Glo), HCC1954; assay type: cell-based; settings: Homo sapiens, HCC1954, 72 h, 3 days
From the text: as §1

[5] = system: phosphorylation of HER2, AKT, ERK and cyclin D1 in BT474 cells; assay: Western blot analysis, BT474; assay type: cell-based, human; settings: BT474, 1 μM, 4 h
Procedure: Cells were plated at 250,000 to 500,000 per well in six-well plates (Falcon multiwell, Becton Dickinson, Franklin Lakes, N.J.). The following day, cells were treated with compounds in the growth medium containing 10% FBS. After treatment, cells were washed with cold PBS and lysed in the culture dishes using cell lysis buffer [40 mmol/L Tris-HCl (pH 7.4), 10% glycerol, 50 mmol/L beta-glycerophosphate, 5 mmol/L EGTA, 2 mmol/L EDTA, 0.35 mmol/L vanadate, 10 mmol/L NaF, and 0.3% Triton X-100] containing protease inhibitors (Complete Protease Inhibitor Tablets, Boehringer Mannheim, Indianapolis, Ind.). […] The membrane blots were rinsed with PBS and blocked in Odyssey Blocking buffer for 1 h at RT. Blots were probed with antibodies against specific proteins in blocking buffer plus 0.1% Tween 20 and incubated for 2 h at room temperature. The membranes were washed and incubated with IRDye 680 or IRDye 800 secondary antibodies at RT for 1 h in blocking buffer plus 0.1% Tween 20. The membranes were developed with Odyssey Infrared Imaging System (LI-COR Biosciences, Lincoln, Nebr.).
Cell lysate (50 μg of total protein) or proteins immunoprecipitated with anti-phospho-Tyrosine antibody were loaded in SDS-PAGE gel. The antibody against specific protein was used in the western blot analysis.

[6] = system: HS746T gastric carcinoma cells; assay: Cell growth inhibition (CellTiter-Glo), HS746T; assay type: cell-based; settings: Homo sapiens, HS746T (HER3-low)
From the text: as §1

[7] = system: OE33 esophageal carcinoma cells; assay: Cell growth inhibition (CellTiter-Glo), OE33; assay type: cell-based, human; settings: 3 days
From the text: Esophageal carcinoma cell line OE33 was purchased from ECACC European Collection of Cell Cultures (UK). Breast cancer cell line JIMT-1 and gastric carcinoma cell line MKN-45 were purchased from Deutsche Sammlung von Mikroorganismen and Zellkulturen GmbH (Germany); KPL-4, a human breast cancer cell line was kindly provided by Prof. J Kurebayashi (Kawasaki Medical School, Kurashiki, Japan). […] The LICR-LON-HN5 head and neck carcinoma cell line (HN5) was a gift from the Institute of Cancer Research, Surrey, U.K. HN5C12 was developed by single-cell cloning of HN5 followed by exposure to increasing concentrations of lapatinib. […] Cell growth inhibition was determined via CellTiter-Glo cell viability assays. […] BT474-J4 and HN5C12 were washed with PBS and plated in their culture media without lapatinib. […] ATP levels were determined by adding Cell Titer Glo0 (Promega), incubating for 20 minutes then the luminescent signal was read on the SpectraMax M5 plate with a 0.5 second integration time. Cell growth was calculated relative to vehicle (DMSO) treated control wells. […] Excess Over Highest Single Agent (EOHSA) is defined as a statistically significant improvement in the combination compared to the component monotherapies. […] Analysis was conducted using two-factor analysis of variance with interaction (model terms were dose of drug A, dose of drug B, and interaction between doses of drug A and B), followed by linear contrasts between each combination group and corresponding monotherapies. Analysis was conducted using SAS (version 9, provided by SAS Institute, Cary, N.C.). EOHSA at each dose was calculated as the minimum difference in average % inhibition between the combination and each monotherapy, from the appropriate ANOVA contrast. Since there are many comparisons for the % inhibition endpoint, p-value adjustment for multiple comparisons was performed. Hommel's procedure was implemented in order to improve the power while retaining […] Error Rate (FWE) control by using a sequentially rejective method. The p-values for both synergy and antagonism were calculated using this adjustment.

[8] = system: MKN-45 gastric carcinoma cells; assay: Cell growth inhibition (CellTiter-Glo), MKN-45; assay type: cell-based; settings: Homo sapiens, MKN-45, MKN-45 (HER3-over)
From the text: as §1

Row | Compound | IC50 (lung_H1975 tumor cells; lung_H1975, +HGF (2 ng/mL)) | IC50 (lung_H1975 tumor cells; lung_H1975, −HGF) | IC50 ([1]; gastric_SNU16, +HGF (2 ng/mL)) | IC50 ([1]; gastric_SNU16, −HGF) | IC50 ([2]; gastric_N87, +HGF (2 ng/mL)) | IC50 ([2]; gastric_N87, −HGF) | IC50 ([3]; breast_BT474, +HGF (2 ng/mL)) | IC50 ([3]; breast_BT474, −HGF) | IC50 ([4]; breast_HCC1954, +HGF (2 ng/mL)) | IC50 ([4]; breast_HCC1954, −HGF) | downstream signaling: phosphorylation of AKT and ERK, level of cyclin D1 [5] | phosphorylation of HER2 [5] | IC50 ([6]; +HRG (10 ng/mL)) | IC50 ([6]; −HRG) | IC50 ([7]; Homo sapiens, OE33, 72 h, eso_OE33, +HGF (2 ng/mL)) | IC50 ([7]; Homo sapiens, OE33, 72 h, eso_OE33, −HGF) | IC50 ([7]; eso_OE33, +HGF (2 ng/mL)) | IC50 ([7]; eso_OE33, −HGF) | IC50 ([8]; +HRG (10 ng/mL)) | IC50 ([8]; −HRG)
1 | C#Cc1cccc(Nc2ncnc3cc(OCCOC)c(OCCOC)cc23)c1 [Erlotinib, N-(3-ethynylphenyl)-6,7-bis{[2-(methyloxy)ethyl]oxy}-4-quinazolinamine] | > 10 µM | > 10 µM | 9.37 µM | 6.46 µM | – | – | – | – | – | – | – | – | – | – | – | – | – | – | – | –
2 | CS(=O)(=O)CCNCc1ccc(-c2ccc3ncnc(Nc4ccc(OCc5cccc(F)c5)c(Cl)c4)c3c2)o1 [Lapatinib, N-(3-chloro-4-{[(3-fluorophenyl)methyl]oxy}phenyl)-6-[5-({[2-(methylsulfonyl)ethyl]amino}methyl)-2-furanyl]-4-quinazolinamine] | – | – | – | – | 4.8 µM | 0.05 µM | 0.12 µM | 0.11 µM | 5.27 µM | 0.8 µM | inhibits | inhibits | 7.37 µM | 7.69 µM | > 10 µM | 6.5 µM | 5.52 µM | 6.52 µM | 5.06 µM | 6.16 µM
